This note sets out measurements from patent US20130053357A1, “SKIN IRRITATION SUPPRESSANT AND TRANSDERMAL PREPARATION” (HISAMITSU PHARMACEUTICAL CO., INC., priority 2010, published 2013).

Data set [1] relates to human three-dimensional culture epidermal model (LabCyte EPI-MODEL). Description: Suppression by cholesterol of skin irritation mediator production induced by asenapine and LADA in a human epidermal cell (Experiment 6). In kind it is cell-based. Here is the method: (§1) A human three-dimensional epidermal culture model obtained by multilayer-culturing a human normal epidermal cell (LabCyte EPI-MODEL, manufactured by Japan Tissue Engineering Co., Ltd.) was used. LabCyte is a cultured skin cultured in a transwell. For the experiment, LabCyte was used with the transwell.
(§2) The experiment was conducted as below. First, LabCyte was put into a 24-well assay plate. Then, 1 ml of assay medium (Japan Tissue Engineering Co., Ltd.) was added so that it was brought into contact with a bottom surface of the cultured skin in each well of the 24-well assay plate, and was pre-cultured in an incubator with 5% of carbon dioxide concentration at 37° C. for 1 hour.
(§3) The test solutions of each group were added to the cells, the culture solutions incubated for 48 hours were collected, and a production amount of each skin irritation mediator was measured. The skin irritation mediator was measured by using a commercially available ELISA kit (manufactured by R&D Systems, Inc.). A relative production amount of the skin irritation mediator in each test substance was calculated as below, when the production amount of the skin irritation mediator in the PMA Only Group was set to 100.
Cholesterol was used as a test substance. Asenapine and lauric acid diethanolamide (LADA) were used as the cutaneous irritants.
Tests were conducted by the following group composition. • Solvent Group: A group including only vehicle. Olive oil was used as a vehicle. • Skin Irritant Only Group: A group with addition of only cutaneous irritant dispersed in a vehicle, as a test solution. The concentration of asenapine maleate to be added was 0.6% (asenapine group), and that of LADA was 0.03% (LADA group). • Skin Irritant Plus Cholesterol Group: A group with addition of the drug and 1% by mass of cholesterol which were dispersed in a vehicle, as a test solution.
The experiment was conducted while other conditions were set in the same manner as Experiment 1.

The test system is the same in data set [2]. Description: Production of skin irritation mediators induced by PMA in human three-dimensional epidermal culture model (Experiment 1). The class given is cell-based. To be noted: for activity at 1 %: Homo sapiens, test substance 1 mass % with PMA in olive oil, 48 hours.
Text: Changes in production amounts of skin irritation mediators by test substances were examined when cutaneous irritants were caused to act on a human three-dimensional culture epidermal model.
as §1
As test substances, there were used cholesterol (manufactured by Wako Pure Chemical Industries, Ltd.), β-sitosterol (manufactured by TAMA BIOCHEMICAL CO., LTD.), α-spinasterol (manufactured by ChromaDex, Inc.), ergosterol (manufactured by Wako Pure Chemical Industries, Ltd.), campesterol (manufactured by TAMA BIOCHEMICAL CO., LTD.), glycyrrhizin (manufactured by Wako Pure Chemical Industries, Ltd.), glycyrrhetinic acid (manufactured by Wako Pure Chemical Industries, Ltd.), ginsenoside (manufactured by Wako Pure Chemical Industries, Ltd.), squalene (manufactured by Wako Pure Chemical Industries, Ltd.), squalane (manufactured by Tokyo Chemical Industry Co., Ltd.) and lanosterol (manufactured by ChromaDex, Inc.), which are candidates of a skin irritation suppressant.
As skin irritants, Phorbol 12-Myristate 13-Acetate (PMA, manufactured by Wako Pure Chemical Industries, Ltd.) was used. In addition, as vehicle, olive oil (manufactured by Wako Pure Chemical Industries, Ltd.) was used.
Experiments were conducted by the following group composition. • PMA Only Group: A group with addition of only 0.00001 mol of PMA dispersed in a vehicle, as a test solution. • Test Substance Group: A group with addition of 0.00001 mol of PMA and the test substance which were dispersed in a vehicle, as a test solution.
as §2
Next, a cell survival rate was measured by the MTT method after causing the test solutions of each group to act. Specifically, 50 μL of the test solution of each group was added to the surface of the LabCyte after preculture, was cultured in the incubator with 5% of carbon dioxide concentration at 37° C. for 48 hours, then was transferred to the assay medium comprising 0.5 mg/ml of MTT reagent, and was cultured in the incubator with 5% of carbon oxide level at 37° C. for 3 hours. Then, LabCyte was immersed in 0.3 ml of an isopropanol solution, and the produced blue-purple formazan was extracted for 2 hours. After extraction, an absorbance at 570 nm was measured by a 96 microplate reader. The cell survival rate was calculated as below.
Cell survival rate (%)=(absorbance of Test Substance Group)/(absorbance of PMA Only Group)×100
Subsequently, a production amount of the skin irritation mediator at a test substance concentration with 80% or more of cell survival rate was measured. As skin irritation mediators, PGE2, IL-1α, IL-6, IL-8 were measured.
as §3
Relative production amount=(production amount of the mediator in Test Substance Group)/(production amount of the mediator in PMA Only Group)×100

Data set [3] has the same test system. Description: Suppression by cholesterol of skin irritation mediator production induced by drugs in a human epidermal cell (Experiment 2). The class given is cell-based. To be noted: 1% by mass of cholesterol; summary of Table 2. As to the method: as §1, §2, §3
Cholesterol was used as a test substance. The drugs shown in Table 2 were used as the cutaneous irritants.
Tests were conducted by the following group composition. • Drug Only Group: A group with addition of only the drug dispersed in a vehicle, as a test solution. Concentrations of the drugs are shown in Table 2. • Drug Plus Cholesterol Group: A group with addition of the drug and 1% by mass of cholesterol which were dispersed in a vehicle, as a test solution.
The experiment was conducted while other conditions were set in the same manner as in Experiment 1.

Data set [4] deals with croton oil-induced mouse ear swelling. Description: Suppression of croton oil-induced mouse ear swelling reaction (Experiment 3). In kind it is in vivo. The text has this:
<Suppression of Croton Oil-Induced Mouse Ear Swelling Reaction by the Test Substances>
Suppression of mouse ear swelling was examined through the use of croton oil (Wako Pure Chemical Industries, Ltd.) as a swelling inducer. A 7-week-old ddY female mouse (SPF) was subjected to an experiment. As test substances, cholesterol, glycyrrhizin, glycyrrhetinic acid, squalene, ergosterol, squalane and lanosterol were used. As a vehicle, acetone (Wako Pure Chemical Industries, Ltd.) was used.
Experiments were conducted by the following group composition. • Positive Control Group: A group which received only the vehicle as a primary test solution, and one hour after, received a 2% croton oil solution as a secondary test solution. • Test Substance Group: A group in which only the vehicle was administered as a primary test solution, and one hour after, a 2% croton oil solution including 1% by mass of test substance was administered as a secondary test solution.
An inhibition ratio of ear swelling was calculated as below. In this test, a […] inflammation model is used to examine immediate swelling reactions. In accordance with the group composition, 25 μL of the primary test solution was uniformly coated on back sides of both ears in an etherize mouse, and one hour after, 25 μL of the secondary test solution was uniformly coated in accordance with the group composition. Prior to coating of the secondary test solution, a thickness of auricle was measured by DIAL […] GAUGE (OZAKI MFG CO., LTD.). Furthermore, the secondary test solution was administered, and 6 hours after, the auricular thickness was measured in the same way as mentioned above, and an increased amount of the auricular thickness was set by deducting the thickness measured prior to administration of the secondary test solution. The inhibition ratio of ear swelling was calculated as below.
Inhibition ratio of ear swelling (%)=(increased amount of auricular thickness in Test Substance Group−increased amount of auricular thickness in Negative Control Group)/(increased amount of auricular thickness in Positive Control Group−increased amount of auricular thickness in Negative Control Group)×100

Data set [5] deals with shaved back of the rabbit. To be noted: in vivo.
Procedure: <Examination of Reduction in Skin Irritation in a Rabbit by Cholesterol, −1>
A 19-week-old JW female rabbit was subjected to an experiment.
Subsequently, the transdermal preparation of each group was applied to a shaved back of the rabbit a single time for 24 hours. Erythema and swelling on the applied site were evaluated 1, 24 and 48 hours after peel-off of the transdermal preparation in accordance with the judgment standard of Draize et al. and an average value of the skin primary irritation index (PII) was calculated.
Where [6] appears, read: asenapine maleate 0.6% in olive oil, without or with 1% by mass of cholesterol.
[7] abbreviates: LADA 0.03% in olive oil, without or with 1% by mass of cholesterol.

Counter-ions that a name gives are not always drawn. Like-named read-outs stand apart in the source and are kept apart here.

With `CN1CC2c3ccccc3Oc3ccc(Cl)cc3C2C1` (centres unmarked) [Asenapine, asenapine maleate], in data set [1] (setting [6]), the “Production Amount of Skin Irritation Mediator: IL-1A” value was found to be 17.24 pg/mL, the “Production Amount of Skin Irritation Mediator: IL-6” value was determined as 0.00 pg/mL, the “Production Amount of Skin Irritation Mediator: IL-8” value is 174.90 pg/mL and the “Production Amount of Skin Irritation Mediator: PGE2” value came to 125.85 pg/mL. Moreover, the “Production Amount of Skin Irritation Mediator: TNFA” value in data set [1] (setting [6]) worked out at 0.00 pg/mL.
For the compound `CC(C)CCC[C@@H](C)[C@H]1CC[C@H]2[C@@H]3CC=C4C[C@@H](O)CC[C@]4(C)[C@H]3CC[C@]12C` [Cholesterol, cholesterol], the activity at 1 % in data set [2] (read-out: Relative Production Amount of Skin Irritation Mediator when Production Amount in PMA Only Group is Set to 100: IL-1α) turned out to be 50%; in data set [2] (read-out: Relative Production Amount of Skin Irritation Mediator when Production Amount in PMA Only Group is Set to 100: IL-6) it was 0%; in data set [2] (read-out: Relative Production Amount of Skin Irritation Mediator when Production Amount in PMA Only Group is Set to 100: IL-8), 65%; in data set [2] (read-out: Relative Production Amount of Skin Irritation Mediator when Production Amount in PMA Only Group is Set to 100: PGE2), 17%. Moreover, the “Effect on skin irritation mediator production by PMA (in words)” value in data set [2] (summary of Table 1) was “exhibited effects of suppressing the skin irritation mediator production by PMA”. In addition, in data set [3], the “Effect of cholesterol on drug-induced production of the skin irritation mediator (in words)” value is “exhibited effects of suppressing of production of the skin irritation mediator on a wide range of drugs”. The “Inhibition Ratio Of Ear Swelling” value in data set [4] (ddY female mouse, 1% by mass of test substance in 2% croton oil solution, 25 μL on ears, auricular thickness 6 hours after) came out at 70.6%. For the same compound, the “Effect on croton oil-induced mouse ear swelling reaction (in words)” value in data set [4] (summary of Table 3) was “suppress croton oil-induced mouse ear swelling reaction”. For the same compound, the “Effect of cholesterol on skin irritation mediator production due to asenapine and LADA (in words)” value in data set [1] (1% by mass of cholesterol, summary of Tables 5 and 6) was “exhibited effects of suppressing the skin irritation mediator production on skin irritation due to asenapine and LADA”. Further, in data set [5], the “Skin primary irritation index (PII), average value” is recorded as “reduces skin irritation due to the drug”.
Take `CCCCCCCCCCCC(=O)N(CCO)CCO` [LADA, lauric acid diethanolamide]: in data set [1] (setting [7]), the “Production Amount of Skin Irritation Mediator: IL-1α” value amounted to 29.85 pg/mL, the “Production Amount of Skin Irritation Mediator: IL-6” value stood at 0.00 pg/mL, the “Production Amount of Skin Irritation Mediator: IL-8” value worked out at 160.29 pg/mL and the “Production Amount of Skin Irritation Mediator: PGE2” value was 30.64 pg/mL. Moreover, the “Production Amount of Skin Irritation Mediator: TNFα” value in data set [1] (setting [7]) came to 0.00 pg/mL.
